Holding throughout (type): cell-based
The test system of experiment [1] is NCI-N87 cells. As to the kind of experiment: MTT assay of BsHer2-ADCs against NCI-N87 cells. The note with it: Homo sapiens, BsHer2 (trastuzumab/pertuzumab)-ADCs, 5000 cells, 96 h incubation. For orientation: Tetrazolium dyes change colour on reduction, which living cells bring about.
The subject of experiment [2] is C4-2B cells. As to the kind of experiment: MTT assay of B7H3-ADCs against C4-2B tumor cells. The note with it: 6000 cells, 96 h incubation.
Experiment [3] deals with SW1990 cells. As to the kind of experiment: MTT assay of BsHer2-ADCs against SW1990 cells. The note with it: Homo sapiens, BsHer2 (trastuzumab/pertuzumab)-ADCs, 5000 cells, 96 h incubation.
The test system of experiment [4] is 22RV1 cells. As to the kind of experiment: MTT assay of B7H3-ADCs against 22RV1 tumor cells. The note with it: Homo sapiens, 6000 cells, 96 h incubation.
The subject of experiment [5] is SU86.86 cells. Nature of the experiment: MTT assay of BsHer2-ADCs against SU86.86 cells. Particulars: Homo sapiens, SU.86.86, BsHer2 (trastuzumab/pertuzumab)-ADCs, 5000 cells, 96 h incubation.
Experiment [6] relates to PC3-4H7 cells. As to the kind of experiment: MTT assay of B7H3-ADCs against PC3-4H7 tumor cells. The note with it: 6000 cells, 96 h incubation. The text has this:
Parent cell line PC-3 from Nanjing Cobioer Biosciences Co., was introduced with plasmid coexpress both human PSMA and RFP-Neomycin fusion protein and plasmid coexpress human Steap1 and GFP-Blasticidin fusion protein. The high expression cells were selected by neomycin and Blasticidin, and the selected clone 4H7 having high expression of both PSMA and Steapl was verified by FACs and chosen for further use in vitro and in vivo study.
The cell lines used in the cytotoxicity assays were: C4-2B Cells which was obtained from ATCC through license agreement with MD Anderson Cancer Center, Houston, TX, USA. 22RV1, U87, NCI-N87, MKN-7, JIMT-1, SU86.86, SW1990, OVCAR-3, Calu-3, A431, AsPC-1, HCC827 and H1975 cells were purchased from ATCC, Nanjing Cobioer and The Cell Bank of Shanghai Institute of Biochemistry and Cell Biology, and the others. C4-2B and PC-3-4H7 are both Steap1 and PSMA antigen high express cells, but medium expressed of both B7H3 and DLL3 antigens. 22RV1 is low express cells for Steapl, PSMA, B7H3 and DLL3 antigens. U87 is glioblastoma (GBM) cells, NCI-N87 and MKN-7 cell line are stable models of the gastric epithelium. […] After it was shaken for 15 min, the absorbance was measured at 490 nm and 570 nm with a reference filter of 620 nm. The inhibition % was calculated according to the following equation: inhibition % =[1-(assay-blank)/(control-blank)]x 100.

Experiment [7] concerns MKN-7 cells. As to the kind of experiment: MTT assay of BsHer2-ADCs against MKN-7 cells. The note with it: Homo sapiens, BsHer2 (trastuzumab/pertuzumab)-ADCs, 5000 cells, 96 h incubation.

Data on one compound can be found in patent US20260199510A1, “AN ANTIBODY-DRUG CONJUGATE HAVING TWO OR MORE FUNCTIONAL SMALL MOLECULE COMPOUNDS FOR ENHANCED TREATMENT OF REFRACTORY DISEASES” (priority 2023, published 2026).

The term IC50 denotes the concentration at which inhibition is half-maximal. Read a low IC50 as inhibition by little substance. As to `CC(=O)O[C@H]1C(=O)[C@@]2(C)[C@H]([C@H](OC(=O)c3ccccc3)[C@]3(O)C[C@H](OC(=O)[C@H](O)[C@@H](NC(=O)c4ccccc4)c4ccccc4)C(C)=C1C3(C)C)[C@]1(OC(C)=O)CO[C@@H]1C[C@@H]2O` [Paclitaxel], the IC50 in experiment [1] turned out to be 0.76 nM; in experiment [2] it was 1.59 nM; in experiment [3] it was 0.042 nM; in experiment [4], 1.85 nM; in experiment [5], 2.98 nM; in experiment [6], 2.03 nM. This compound also displayed an IC50 in experiment [7] of 10.2 nM.
